This note sets out measurements from patent US7795290B2 (Genentech, Inc., priority 2004, dated 2010).

The target of the experiment is T1, AKT1 (Homo sapiens, UniProt P31749).
T1 construct: purchased Upstate 14-276
T1 sequence (P31749 whole entry): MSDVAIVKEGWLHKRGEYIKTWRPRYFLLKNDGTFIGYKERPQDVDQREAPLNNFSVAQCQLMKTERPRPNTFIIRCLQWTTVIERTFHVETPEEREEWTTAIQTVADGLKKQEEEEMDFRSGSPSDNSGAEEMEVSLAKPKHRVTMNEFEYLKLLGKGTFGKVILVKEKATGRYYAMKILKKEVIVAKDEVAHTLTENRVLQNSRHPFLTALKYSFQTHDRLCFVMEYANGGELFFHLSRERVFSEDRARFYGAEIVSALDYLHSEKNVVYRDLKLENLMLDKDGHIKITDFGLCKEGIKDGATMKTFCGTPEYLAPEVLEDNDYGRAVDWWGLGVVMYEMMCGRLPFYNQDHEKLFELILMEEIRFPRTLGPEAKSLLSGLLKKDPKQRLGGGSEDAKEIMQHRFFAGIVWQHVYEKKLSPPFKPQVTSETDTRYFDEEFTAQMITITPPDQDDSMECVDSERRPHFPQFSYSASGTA
Nature of the experiment: HTS ATP-utilizing enzyme assay, off-chip mobility-shift (Caliper HTS 250). In kind it is biochemical. As to conditions: kinase named = inhibitory activity/selectivity; test compound 10 μM; active = greater than three-sigma from mean. The gist of the method:
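AKT1 activity was measured by off-chip mobility shift (Caliper HTS 250) as the ratio of peptide substrate to phosphorylated product. Test compound was at 10 μM, with 2.5 h incubation at 20–22° C. EDTA wells served as 100% control and DMSO wells as 0%. Hits were called at three-sigma limits.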
For `O=C(c1cccs1)N(CCCN1CCC(O)C1)c1nc(-c2cc3ccccc3o2)cs1` (centres unmarked) [N-(4-(benzofuran-2-yl)thiazol-2-yl)-N-(3-(3-hydroxypyrrolidin-1-yl)propyl)thiophene-2-carboxamide], the Activity result is on record as “AKT1”. With `O=C(CCN1CCOCC1)NCCCN(C(=O)c1cccs1)c1nc(-c2cc3ccccc3o2)cs1` [N-(4-(benzofuran-2-yl)thiazol-2-yl)-N-(3-(3-morpholinopropanamido)propyl)thiophene-2-carboxamide], the Activity result is on record as “AKT1”. The result for `O=C1CN(CCCN(C(=O)c2cccs2)c2nc(-c3cc4ccccc4o3)cs2)CCN1` [N-(4-(benzofuran-2-yl)thiazol-2-yl)-N-(3-(3-oxopiperazin-1-yl)propyl)thiophene-2-carboxamide] reads “AKT1”.

For the compound `O=C(c1cccs1)N(CCCN1CCC(O)(O)CC1)c1nc(-c2cc3ccccc3o2)cs1` [N-(4-(benzofuran-2-yl)thiazol-2-yl)-N-(3-(4,4-dihydroxypiperidin-1-yl)propyl)thiophene-2-carboxamide], the Activity result is “AKT1”. The result for `O=C(c1cccs1)N(CCCN1CCN(CCOCCO)CC1)c1nc(-c2cc3ccccc3o2)cs1` [N-(4-(benzofuran-2-yl)thiazol-2-yl)-N-(3-(4-(2-(2-hydroxyethoxy)ethyl)piperazin-1-yl)propyl)thiophene-2-carboxamide] reads “AKT1”.

Regarding `CN(C)C(=O)CN1CCN(CCCN(C(=O)c2cccs2)c2nc(-c3cc4ccccc4o3)cs2)CC1` [N-(4-(benzofuran-2-yl)thiazol-2-yl)-N-(3-(4-(2-(dimethylamino)-2-oxoethyl)piperazin-1-yl)propyl)thiophene-2-carboxamide], the Activity entry is listed as “AKT1”. For `CN(C)CCN1CCN(CCCN(C(=O)c2cccs2)c2nc(-c3cc4ccccc4o3)cs2)CC1` [N-(4-(benzofuran-2-yl)thiazol-2-yl)-N-(3-(4-(2-(dimethylamino)ethyl)piperazin-1-yl)propyl)thiophene-2-carboxamide] the value was “AKT1”; for `N#CCCN1CCN(CCCN(C(=O)c2cccs2)c2nc(-c3cc4ccccc4o3)cs2)CC1` [N-(4-(benzofuran-2-yl)thiazol-2-yl)-N-(3-(4-(2-cyanoethyl)piperazin-1-yl)propyl)thiophene-2-carboxamide], “AKT1”; for `O=C(c1cccs1)N(CCCN1CCN(CCO)CC1)c1nc(-c2cc3ccccc3o2)cs1` [N-(4-(benzofuran-2-yl)thiazol-2-yl)-N-(3-(4-(2-hydroxyethyl)piperazin-1-yl)propyl)thiophene-2-carboxamide], “AKT1”. Take `O=C(c1cccs1)N(CCCN1CCC(CCO)CC1)c1nc(-c2cc3ccccc3o2)cs1` [N-(4-(benzofuran-2-yl)thiazol-2-yl)-N-(3-(4-(2-hydroxyethyl)piperidin-1-yl)propyl)thiophene-2-carboxamide]: the Activity result is reported as “AKT1”. The result for `COCCN1CCN(CCCN(C(=O)c2cccs2)c2nc(-c3cc4ccccc4o3)cs2)CC1` [N-(4-(benzofuran-2-yl)thiazol-2-yl)-N-(3-(4-(2-methoxyethyl)piperazin-1-yl)propyl)thiophene-2-carboxamide] reads “AKT1”; that for `CCN(CC)C1CCN(CCCN(C(=O)c2cccs2)c2nc(-c3cc4ccccc4o3)cs2)CC1` [N-(4-(benzofuran-2-yl)thiazol-2-yl)-N-(3-(4-(diethylamino)piperidin-1-yl)propyl)thiophene-2-carboxamide], “AKT1”. The result for `CN(C)CCCC(=O)NCCCN(C(=O)c1cccs1)c1nc(-c2cc3ccccc3o2)cs1` [N-(4-(benzofuran-2-yl)thiazol-2-yl)-N-(3-(4-(dimethylamino)butanamido)propyl)thiophene-2-carboxamide] reads “AKT1”; that for `O=C(c1cccs1)N(CCCN1CCC(CO)CC1)c1nc(-c2cc3ccccc3o2)cs1` [N-(4-(benzofuran-2-yl)thiazol-2-yl)-N-(3-(4-(hydroxymethyl)piperidin-1-yl)propyl)thiophene-2-carboxamide], “AKT1”. The result for `CS(=O)(=O)N1CCN(CCCN(C(=O)c2cccs2)c2nc(-c3cc4ccccc4o3)cs2)CC1` [N-(4-(benzofuran-2-yl)thiazol-2-yl)-N-(3-(4-(methylsulfonyl)piperazin-1-yl)propyl)thiophene-2-carboxamide] reads “AKT1”; that for `O=C(N1CCOCC1)N1CCN(CCCN(C(=O)c2cccs2)c2nc(-c3cc4ccccc4o3)cs2)CC1` [N-(4-(benzofuran-2-yl)thiazol-2-yl)-N-(3-(4-(morpholine-4-carbonyl)piperazin-1-yl)propyl)thiophene-2-carboxamide], “AKT1”; that for `O=C(C1CCCO1)N1CCN(CCCN(C(=O)c2cccs2)c2nc(-c3cc4ccccc4o3)cs2)CC1` (centres unmarked) [N-(4-(benzofuran-2-yl)thiazol-2-yl)-N-(3-(4-(tetrahydrofuran-2-carbonyl)piperazin-1-yl)propyl)thiophene-2-carboxamide], “AKT1”. As to `O=C(c1cccs1)N(CCCN1CCC(O)CC1)c1nc(-c2cc3ccccc3o2)cs1` [N-(4-(benzofuran-2-yl)thiazol-2-yl)-N-(3-(4-hydroxypiperidin-1-yl)propyl)thiophene-2-carboxamide], the Activity entry is “AKT1”. The result for `CN1CCN(CCCN(C(=O)c2cccs2)c2nc(-c3cc4ccccc4o3)cs2)CC1` [N-(4-(benzofuran-2-yl)thiazol-2-yl)-N-(3-(4-methylpiperazin-1-yl)propyl)thiophene-2-carboxamide] reads “AKT1”; that for `O=C(c1cccs1)N(CCCN1CCC(N2CCOCC2)CC1)c1nc(-c2cc3ccccc3o2)cs1` [N-(4-(benzofuran-2-yl)thiazol-2-yl)-N-(3-(4-morpholinopiperidin-1-yl)propyl)thiophene-2-carboxamide], “AKT1”.

Take `CN(CC(O)CO)C(=O)CCN(C(=O)c1cccs1)c1nc(-c2cc3ccccc3o2)cs1` (centres unmarked) [N-(4-(benzofuran-2-yl)thiazol-2-yl)-N-(3-((2,3-dihydroxypropyl)(methyl)amino)-3-oxopropyl)thiophene-2-carboxamide]: the Activity entry was “AKT1”.

Take `CN(C)CCN(C)C(=O)CCN(C(=O)c1cccs1)c1nc(-c2cc3ccccc3o2)cs1` [N-(4-(benzofuran-2-yl)thiazol-2-yl)-N-(3-((2-(dimethylamino)ethyl)(methyl)amino)-3-oxopropyl)thiophene-2-carboxamide]: the Activity entry is listed as “AKT1”. The result for `CN(CCC#N)C(=O)CCN(C(=O)c1cccs1)c1nc(-c2cc3ccccc3o2)cs1` [N-(4-(benzofuran-2-yl)thiazol-2-yl)-N-(3-((2-cyanoethyl)(methyl)amino)-3-oxopropyl)thiophene-2-carboxamide] reads “AKT1”. For `CN(CCO)C(=O)CCN(C(=O)c1cccs1)c1nc(-c2cc3ccccc3o2)cs1` [N-(4-(benzofuran-2-yl)thiazol-2-yl)-N-(3-((2-hydroxyethyl)(methyl)amino)-3-oxopropyl)thiophene-2-carboxamide] the value was “AKT1”.

`O=C(CCN(C(=O)c1cccs1)c1nc(-c2cc3ccccc3o2)cs1)N(CCO)CCO` [N-(4-(benzofuran-2-yl)thiazol-2-yl)-N-(3-(bis(2-hydroxyethyl)amino)-3-oxopropyl)thiophene-2-carboxamide]: the Activity entry is recorded as “AKT1”. The result for `O=C(c1cccs1)N(CCC(=O)N(CCCCO)C1CCCCC1)c1nc(-c2cc3ccccc3o2)cs1` [N-(4-(benzofuran-2-yl)thiazol-2-yl)-N-(3-(cyclohexyl(4-hydroxybutyl)amino)-3-oxopropyl)thiophene-2-carboxamide] reads “AKT1”; that for `CCN(CC)CCCN(C(=O)c1cccs1)c1nc(-c2cc3ccccc3o2)cs1` [N-(4-(benzofuran-2-yl)thiazol-2-yl)-N-(3-(diethylamino)propyl)thiophene-2-carboxamide], “AKT1”; that for `O=C(CCN(C(=O)c1cccs1)c1nc(-c2cc3ccccc3o2)cs1)NCc1ccoc1` [N-(4-(benzofuran-2-yl)thiazol-2-yl)-N-(3-(furan-3-ylmethylamino)-3-oxopropyl)thiophene-2-carboxamide], “AKT1”.

Take `CC(C)CN(C(=O)CCN(C(=O)c1cccs1)c1nc(-c2cc3ccccc3o2)cs1)C1CCS(=O)(=O)C1` (centres unmarked) [N-(4-(benzofuran-2-yl)thiazol-2-yl)-N-(3-(isobutyl(1,1-dioxo-tetrahydrothiophen-3-yl)amino)-3-oxopropyl)thiophene-2-carboxamide]: the Activity entry is on record as “AKT1”. The result for `O=C(CCN(C(=O)c1cccs1)c1nc(-c2cc3ccccc3o2)cs1)N1Cc2ccccc2C1` [N-(4-(benzofuran-2-yl)thiazol-2-yl)-N-(3-(isoindolin-2-yl)-3-oxopropyl)thiophene-2-carboxamide] reads “AKT1”; that for `CNCCN(C)C(=O)CCN(C(=O)c1cccs1)c1nc(-c2cc3ccccc3o2)cs1` [N-(4-(benzofuran-2-yl)thiazol-2-yl)-N-(3-(methyl(2-(methylamino)ethyl)amino)-3-oxopropyl)thiophene-2-carboxamide], “AKT1”. As for `CN(C(=O)CCN(C(=O)c1cccs1)c1nc(-c2cc3ccccc3o2)cs1)c1ccncc1` [N-(4-(benzofuran-2-yl)thiazol-2-yl)-N-(3-(methyl(pyridin-4-yl)amino)-3-oxopropyl)thiophene-2-carboxamide], the Activity entry was “AKT1”. The result for `O=C(c1cccs1)N(CCCN1CCCCC1)c1nc(-c2cc3ccccc3o2)cs1` [N-(4-(benzofuran-2-yl)thiazol-2-yl)-N-(3-(piperidin-1-yl)propyl)thiophene-2-carboxamide] reads “AKT1”. For `O=C(CCN(C(=O)c1cccs1)c1nc(-c2cc3ccccc3o2)cs1)N1CCOCC1` [N-(4-(benzofuran-2-yl)thiazol-2-yl)-N-(3-morpholino-3-oxopropyl)thiophene-2-carboxamide] the value was “AKT1”; for `O=C(C1CCC1)N(CCCN1CCOCC1)c1nc(-c2cc3ccccc3o2)cs1` [N-(4-(benzofuran-2-yl)thiazol-2-yl)-N-(3-morpholinopropyl)cyclobutanecarboxamide], “AKT1”.
